Data: patent US5140025A, “Thienotricylene for the treatment of bronchial diseases” (BYK Gulden Lomberg Chemische Fabrik GmbH, priority 1987, dated 1992)
Read-outs that look alike come from different tables or passages of the source.

Tests used:
[1] = test system: acetylcholine-induced changes in lung function parameters; assay: Acetylcholine-induced changes in lung function parameters in anaesthetised guinea pigs, intratracheal administration (whole-body plethysmography); format: in vivo, guinea pig (Pirbright White); settings: for Bronchospasmolytic activity, percentage increase of compliance vs control / Bronchospasmolytic activity, percentage increase of conductance vs control: x±SEM, N=10; for ED50: Cavia porcellus
From the text: Effect of Intratracheally (i.t.) Administered (±)-Telenzepine on Acetylcholine-Induced Changes in Lung Function Parameters in Anaesthetised Guinea Pigs
Small-anmimal whole-body plethysmography in anaesthetised guinea pigs (method according to U. Heinreich and A. Wilhelm, in bga-Schriften 5/84, pp 255-266, MMW-Verlag, 1984).
Pirbright White, Interfauna (Tuttlingen). 290-350 g, male.
Ethylurethane 1.2 g/kg i.p. as 12.5% aqueous solution.
Plethysmographic measurement of maximum flow velocities of the respiratory air and tidal volume using tracheal catheter inserted through the natural passages; and measurement of intrapleural pressure using oesophageal catheter inserted through the natural passages.
0.001, 0.01, 0.1 and 1 μmol/kg (±)-telenzepine i.t., dissolved in 0.1 ml/kg 0.9% NaCl+0.1% Tween 80, acetylcholine as spasmogen administered by inhalation of ultrasonically nebulized 0.18% acetylcholine/0.9% NaCl solution.
-10 min control spasm, 0 min administration of substance, +5 and +30 min test spasms.
Computation of conductance (=capacity of airways to conduct air, equivalent to reciprocal of airway resistance) and of compliance (=distensibility of lung) from the recorded data, according to the method of Amdur and Mead (Amer. J. Physiol., 192, 364-368, 1958), before and at peak spasm, and determination of differences; calculation of percentage inhibition of the spasm after administration of the substance, in comparison with the control spasm; calculation of the dose/response curve and ED50 values of this bronchospasmolytic activity.

[2] = test system: acetylcholine-induced asthma attacks; assay: Acetylcholine-induced asthma attacks in the conscious guinea pig, oral administration; format: in vivo, guinea pig (Pirbright White); settings: 30 min after administration; for Number of animals, latency period tripled (= protected): 10 animals used
From the text: Effect of orally administered (±)-telenzepine on acetylcholine-induced asthma attacks in the conscious guinea pig
As described by R. Beume, U. Kilian, N. Kolassa, K. Mussler, Atemw.-Lungenkrkh., 11, 342-345, 1985 ("The testing of bronchospasmolytic substances in conscious guinea pigs").
Pirbright White, Interfauna (Tuttlingen), 250-450 g, male, 10 animals per dose and experiment.
Thoracographic measurement of the respiratory activity, measurement of the latency period from the beginning of acetylcholine nebulisation to the beginning of the asthma attack; determination of the number of animals for which, 30 minutes after administration, the latency period of the experimental attack has been at least tripled in relation to the control attack; estimation of the approximate ED50 from this.
0.1, 0.3, 1, 3, 10 and 30 μmol/kg (±)-telenzepine p.o. (in 4% Methocel, administered in 0.9% NaCl); acetylcholine 0.09% in 0.9% NaCl by inhalatin (ultrasonic nebulisation).
The number of animals for which there is at least a tripling of the latency period of the acetylcholine-induced experimental attack in comparison with the control attack as a function of the perorally administered (±)-telenzepine dose is expressed as follows: […]

M1 receptor (ganglionic) = assay: Receptor affinity, electrically stimulated rabbit vas deferens in organ bath; settings: vas deferens of the rabbit, agonist McN-A-343, Schild slope normalised to 1.00
Protocol: Isometric contractions (HSE force transducer, K-30; tilt and zones, BD-9 chart recorder) of isolated seminal duct sections of rabbits (male, white New Zealand rabbits, 2.5-3.5 kg) were recorded in an organ bath (10 ml, 31° C., gassing with carbogen, initial tension of the organs 0.75 g) under electrical stimultion (HSE stimulator; hook-shaped Pt electrode 1 cm below the water surface of the bath; 30 V, 0.5 ms, 0.05 Hz). After an equilibration time of 30 minutes, cumulative dose/response curves of McN-A-343 (10^-7 -2×10^-6 M) were recorded simultaneously on 8 organ sections in each case (control curves), using the technique described by van Rossum (1963). After 3 control curves, a fixed concentration of the agonist (for example 5×10^-7, 10^-6, 3×10^-6, 10^-5 or 3×10^-5 M) per organ section was applied and, after stabilisation of the effect, increasing concentrations of the agonist to be tested were added. The nutrient solution used had the following composition (mM): NaCl 118, KCl 4.7, CaCl2 ·2H2 O 2.5, MgSO4 ·7H2 O 0.6, KH2 PO 4 1.2, NaHCO3 25.0 and glucose 11.1. In order to block α2 -adrenoreceptors, the nutrient solution additionally contained 10^-6 M yohimbine.
The Tyrode nutrient solution used had the following composition (mM): NaCl 130, KCl 2.0, CaCl2 ·2H2 O 1.8, MgCl2 ·6H2 O 0.98, NaHCO3 12.0, NaH2 PO4 0.42 and glucose monohydrate 5.6. pA2 values (-log of the molar dissociation constants of the competitive antagonist-receptor complex) were determined by linear regression using the Schild plot: pA2 =-log [B/(x-1)], (Arunlakshana and Schild, 1959).

[3] = test system: modified Shay rat (lesion formation and acid secretion); assay: Antiulcerogenic and secretion-inhibiting action on the modified Shay rat; format: in vivo; settings: Rattus norvegicus, iv, 4 h, modified Shay rat, i.v., interpolated dose, 4 h, N=24
From the text: The excellent gastric protective action and the gastric secretion-inhibiting action of the compound (+)-4,9-dihydro-3-methyl-4-[(4-methyl-1-piperazinyl)-acetyl]-10H-thieno[3,4-b][1,5]benzodiazepin-10-one (=compound 1 in Table 8 below) in comparison with the corresponding (-)-enantiomer (=compound 3) and with the racemate (=compound 2) can be detected in studies on the modified Shay rat. The effect of the stated compounds after intravenous (i.v.) administration on the formation of lesions and the acid secretion in the modified Shay rat is shown in Table 8 below.
Ulcers are provoked in rats (female, 180-200 g, 4 animals per cage on high grids) which have fasted for 24 hours, by pylorus ligature (under diethyl ether anaesthesia) and oral administration of 100 mg/10 ml/kg of acetylsalicylic acid. The substances to be tested are administered intravenously (1 ml/kg) directly after the pylorus ligature. The wound is closed by means of Michel clamps. 4 hours afterwards, the animals are sacrificed under anaesthesia with ether by Atlas dislocation, and resection of the stomach.
The stomach is opened along the greater curvature and clamped to a cork sheet, the amount of secreted gastric juice (volume) is determined first and its HCl content (titration with sodium hydroxide solution) being determined subsequently. The number and size (=diameter) of ulcers present are determined using a stereomicroscope, under 10×magnification. The product of severity (according to the following point scale) and number of ulcers serves as an individual lesion index.
The reduction in the means lesion index of each treated group compared with the control group (=100%) serves as a measure of the antiulcerogenic effect. The ED50 is the dose which reduces the mean lesion index or the HCl secretion by 50% compared with the control.

Cc1scc2c1N(C(=O)CN1CCN(C)CC1)c1ccccc1NC2=O (racemic) [(±)-telenzepine, 4,9-dihydro-3-methyl-4-[(4-methyl-1-piperazinyl)-acetyl]-10H-thieno[3,4-b][1,5]benzodiazepin-10-one]
Bronchospasmolytic activity, percentage increase of compliance vs control ([1]; 5 min, 0.001 μmol/kg i.t.): 5 ± 1%
Bronchospasmolytic activity, percentage increase of conductance vs control ([1]; 5 min, 0.001 μmol/kg i.t.): 12 ± 3%
Bronchospasmolytic activity, percentage increase of compliance vs control ([1]; 5 min, 0.01 μmol/kg i.t.): 50 ± 9%
Bronchospasmolytic activity, percentage increase of conductance vs control ([1]; 5 min, 0.01 μmol/kg i.t.): 62 ± 10%
Bronchospasmolytic activity, percentage increase of compliance vs control ([1]; 5 min, 0.1 μmol/kg i.t.): 34 ± 10%
Bronchospasmolytic activity, percentage increase of conductance vs control ([1]; 5 min, 0.1 μmol/kg i.t.): 46 ± 10%
Bronchospasmolytic activity, percentage increase of compliance vs control ([1]; 5 min, 1 μmol/kg i.t.): 57 ± 9%
Bronchospasmolytic activity, percentage increase of conductance vs control ([1]; 5 min, 1 μmol/kg i.t.): 65 ± 9%
Bronchospasmolytic activity, percentage increase of compliance vs control ([1]; 30 min, 0.001 μmol/kg i.t.): 13 ± 3%
Bronchospasmolytic activity, percentage increase of conductance vs control ([1]; 30 min, 0.001 μmol/kg i.t.): 20 ± 5%
Bronchospasmolytic activity, percentage increase of compliance vs control ([1]; 30 min, 0.01 μmol/kg i.t.): 49 ± 9%
Bronchospasmolytic activity, percentage increase of conductance vs control ([1]; 30 min, 0.01 μmol/kg i.t.): 51 ± 9%
Bronchospasmolytic activity, percentage increase of compliance vs control ([1]; 30 min, 0.1 μmol/kg i.t.): 51 ± 9%
Bronchospasmolytic activity, percentage increase of conductance vs control ([1]; 30 min, 0.1 μmol/kg i.t.): 54 ± 7%
Bronchospasmolytic activity, percentage increase of compliance vs control ([1]; 30 min, 1 μmol/kg i.t.): 89 ± 4%
Bronchospasmolytic activity, percentage increase of conductance vs control ([1]; 30 min, 1 μmol/kg i.t.): 84 ± 2%
ED50 ([1]; 5 min, 5 min p.a., read-out: ED50 of bronchospasmolytic activity, compliance): 0.3 µmol/kg
ED50 ([1]; 5 min, 5 min p.a., read-out: ED50 of bronchospasmolytic activity, conductance): 0.05 µmol/kg
ED50 ([1]; 0.5 h, 30 min p.a., read-out: ED50 of bronchospasmolytic activity, compliance): 0.03 µmol/kg
ED50 ([1]; 0.5 h, 30 min p.a., read-out: ED50 of bronchospasmolytic activity, conductance): 0.03 µmol/kg
dose range of time- and dose-dependent inhibition of acetylcholine-induced reduction of conductance and compliance ([1]; i.t.): 0.001-1 μmol/kg i.t.
efficacy at 30 min compared with 5 min after administration ([1]; i.t.): more pronounced at 30 min than at 5 min
Number of animals, latency period tripled (= protected) ([2]; 0.1 μmol/kg p.o.): 3 number of animals
Number of animals, latency period tripled (= protected) ([2]; 0.3 μmol/kg p.o.): 5 number of animals
Number of animals, latency period tripled (= protected) ([2]; 1 μmol/kg p.o.): 6 number of animals
Number of animals, latency period tripled (= protected) ([2]; 3 μmol/kg p.o.): 7 number of animals
Number of animals, latency period tripled (= protected) ([2]; 10 μmol/kg p.o.): 9 number of animals
Number of animals, latency period tripled (= protected) ([2]; 30 μmol/kg p.o.): 10 number of animals
ED50 ([2]; Cavia porcellus, po, 0.5 h, 95% Int. in brackets, read-out: approximate ED50 (at least tripling of latency period)): ~0.7 µmol/kg
pA2 ± SEM, M1 receptor (ganglionic) (M1 receptor (ganglionic)): 8.86 ± 0.06
ED50 ([3]; read-out: Gastric protective action, reduction of lesion index, about ED50): ~0.042 mg/kg
ED50 ([3]; read-out: Inhibition of acid secretion, reduction of HCl secretion, about ED50): ~0.18 mg/kg
